Data from patent US9914732B2, “Diazabicyclo[4.3.1]decane derivatives for treatment of psychiatric disorders” (Max-Planck-Gesellschaft zur Forderung der Wissenschaften …, priority 2014, dated 2018).

What was measured:
FKBP51 = target: T1, FKBP51 (Homo sapiens, UniProt Q13451); experiment: Fluorescence polarization (FP) assay, binding to the FK506-binding domain of FKBP51; conditions: FK506-binding domain of FKBP51 (FKBP51FK1), competition with fluorescent ligand 2b
T1 sequence (Q13451 42-130 limits assumed): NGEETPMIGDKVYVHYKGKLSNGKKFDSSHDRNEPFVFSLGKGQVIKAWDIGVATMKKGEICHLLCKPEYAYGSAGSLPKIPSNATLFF
Experimental: (§1) In the present invention, in vitro fluorescence polarization assays with the compounds of the general formula (I) were performed to determine the binding affinities to FKBP51 and FKBP52 or to the isolated FK506-binding domains of FKBP51 and FKBP52 ([…]). Binding to the isolated FK506-binding domains is reliably indicative of binding to the full length proteins. The affinities for the isolated FK506-binding domains and for full-length FKBP51 or FKBP52 are the same for all compounds tested so far (Kozany et al, ChemBioChem 2009, 10, 1402-1410).
(§2) Example 11: Fluorescence Polarization (FP) Assays
(§3) In-vitro fluorescence polarization assays were performed to determine the binding affinities for FKBP51 and 52 according to a literature procedure (Kozany, C.; Marz, A.; Kress, C.; Hausch, F., Fluorescent probes to characterise FK506-binding proteins. Chembiochem 2009, 10, (8), 1402-10).
(§4) For fluorescence polarization assays the fluorescent ligand 2b was dissolved in HEPES (20 mm, pH 8), Triton-X100 (0.01%), at double the concentration required for the final sample. The target protein was also diluted in this assay buffer at double the highest concentration required for the final sample. This protein stock was used for a 1:1 serial dilution.
(§5) The fluorescent ligand 2b was diluted in assay buffer to a concentration double the final concentration (20 nM 2b). The inventive compound was dissolved in DMSO to reach a 100-times concentrated stock solution. This was used for a 1:1 serial dilution in DMSO. Every sample of this serial dilution was diluted by a factor of 50 in assay buffer supplemented with ligand 2b to achieve a 2× concentrated mixture of ligand 2b and the inventive compound. To this competitive ligand double the protein concentration for 2b assay: FKBP51FK1 560 nM (2×280 nM) or FKBP52FK1 800 nM (2×400 nM) diluted in assay buffer was added.
(§6) The samples were transferred to black 384-well assay plates (No.: 3575; Corning Life Sciences). After incubation at room temperature for 30 min the fluorescence anisotropy was measured (GENios Pro, Tecan, Männedorf, Switzerland) by using an excitation filters of 485/20 nm and emission filters of 535/25 nm. The binding assays were performed in duplicates in the plate format.
(§7) The competition curves were analyzed by using SigmaPlot9. Data were fitted to a four parameter logistic curve to deduce the IC50 values. For the analysis of K1 values, data were fitted to the following equation (Z. X. Wang, FEBS Lett. 1995, 360, 111-114). A=(Amax−Amin)/[L]t×(([L]t×((2×((Klig+Kcomp+[L]t+[I]t−[R]t)^2−3×(Kcomp×([L]t−[R]t)+Klig×([I]t−[R]t)+[…]))^0.5×COS(ARCCOS((−2×(Klig+Kcomp+[L]t+[I]t−[R]t)^3+9×(Klig+Kcomp+[L]t+[I]t−[R]t)×(Kcomp×([L]t−[R]t)+Klig×([I]t−[R]t)+Klig×Kcomp)−27×(−1×Klig×Kcomp×[R]t))/(2×((((Klig+Kcomp+[L]t+[I]t−[R]t)^2−3×(Kcomp×([L]t−[R]t)+Klig×([I]t−[R]t)+Klig×Kcomp))^3)^0.5)))/3))−(Klig+Kcomp+[L]t+[I]t−[R]t)))/((3×Klig)+((2×((Klig+Kcomp+[L]t+[I]t−[R]t)^2−3×(Kcomp×([L]t−[R]t)+Klig×([I]t−[R]t)+Klig×Kcomp))^0.5×COS(ARCCOS((−2×(Klig+Kcomp+[L]t+[I]t−[R]t)^3+9×(Klig+Kcomp+[L]t+[I]t−[R]t)×(Kcomp×([L]t−[R]t)+Klig×([I]t−[R]t)+Klig×Kcomp)−27×(−1×Klig×Kcomp×[R]t))/(2×((((Klig+Kcomp+[L]t+[I]t−[R]t)^2−3×(Kcomp×([L]t−[R]t)+Klig×([I]t−[R]t)+Klig×Kcomp))^3)^0.5)))/3))−(Klig+Kcomp+[L]t+[I]t−[R]t)))+Amin
(§8) In this equation Klig and Kcomp stand for the Kd values of the used tracer or competing inhibitor, [I]t is referring to the total concentration of the titrated inhibitor.

FKBP52 = target: T2, FKBP52 (Homo sapiens, UniProt Q02790); experiment: Fluorescence polarization (FP) assay, binding to the FK506-binding domain of FKBP52; conditions: FK506-binding domain of FKBP52 (FKBP52FK1), competition with fluorescent ligand 2b
T2 sequence (Q02790 50-138 limits assumed): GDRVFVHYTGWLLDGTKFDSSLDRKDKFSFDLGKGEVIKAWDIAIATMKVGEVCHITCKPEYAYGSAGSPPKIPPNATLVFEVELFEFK
Experimental: as §1, §2, §3, §4, §5, §6, §7, §8

Compound | Ki (FKBP51) | Ki (FKBP52)
COc1ccc(OCCN2C[C@H](C[C@H](C)O)C3CCCC(C2=O)N3S(=O)(=O)c2cc(Cl)cc(Cl)c2)cc1OC (single isomer, unassigned) [Compound D4] | ≤ 100 nM | ≤ 100 nM
COc1ccc(OCCN2C[C@H](C[C@H](C)O)C3CCCC(C2=O)N3S(=O)(=O)c2cc(Cl)cc(Cl)c2)cc1OC (single isomer, unassigned) [Compound D5] | ≤ 100 nM | ≤ 100 nM
COCCN1C[C@H](C(C)O)C2CCCC(C1=O)N2S(=O)(=O)c1cc(Cl)cc(Cl)c1 (stereo in doubt) [Compound B6, (1S,5S,6R)-10-((3,5-dichlorophenyl)sulfonyl)-5-((R)-1-hydroxyethyl)-3-(2-methoxyethyl)-3,10-diazabicyclo[4.3.1]decan-2-one] | ≤ 100 nM | ≤ 100 nM
COCCN1CC(CO)C2CCCC(C1=O)N2S(=O)(=O)c1cc(Cl)cc(Cl)c1 (stereo in doubt) [Compound B13, (1S,5R,6R)-10-((3,5-dichlorophenyl)sulfonyl)-5-(hydroxymethyl)-3-(2-methoxyethyl)-3,10-diazabicyclo[4.3.1]decan-2-one] | ≤ 100 nM | 100 to 500 nM
COCCN1CC(COC)C2CCCC(C1=O)N2S(=O)(=O)c1cc(Cl)cc(Cl)c1 (stereo in doubt) [Compound B14, (1S,5R,6R)-10-((3,5-dichlorophenyl)sulfonyl)-3-(2-methoxyethyl)-5-(methoxymethyl)-3,10-diazabicyclo[4.3.1]decan-2-one] | ≤ 100 nM | 100 to 500 nM
O=C1C2CCCC(C(CO)CN1CCO)N2S(=O)(=O)c1cc(Cl)cc(Cl)c1 (stereo in doubt) [Compound C1, (1S,5R,6R)-10-((3,5-dichlorophenyl)sulfonyl)-3-(2-hydroxyethyl)-5-(hydroxymethyl)-3,10-diazabicyclo[4.3.1]decan-2-one] | ≤ 100 nM | ≤ 100 nM
COc1ccc(OCCN2C[C@H](C(C)O)C3CCCC(C2=O)N3S(=O)(=O)c2cc(Cl)cc(Cl)c2)cc1OC (stereo in doubt) [Compound D6, (1S,5S,6R)-10-((3,5-dichlorophenyl)sulfonyl)-3-(2-(3,4-dimethoxyphenoxy)ethyl)-5-((R)-1-hydroxyethyl)-3,10-diazabicyclo[4.3.1]decan-2-one] | ≤ 100 nM | ≤ 100 nM
COc1ccc(OCCN2C[C@H](C(C)O)C3CCCC(C2=O)N3S(=O)(=O)c2cc(Cl)cc(Cl)c2)cc1OC (stereo in doubt) [Compound D7, (1S,5S,6R)-10-((3,5-dichlorophenyl)sulfonyl)-3-(2-(3,4-dimethoxyphenoxy)ethyl)-5-((R)-1-hydroxyethyl)-3,10-diazabicyclo[4.3.1]decan-2-one] | ≤ 100 nM | ≤ 100 nM
C=CC1CNC(=O)C2CCCC1N2S(=O)(=O)c1cc(Cl)cc(Cl)c1 (stereo in doubt) [Compound I8, (1S,5R,6R)-10-((3,5-dichlorophenyl)sulfonyl)-5-vinyl-3,10-diazabicyclo[4.3.1]decan-2-one] | 500 to 1000 nM | 500 to 1000 nM
C=CC1CN(CCCOCc2ccccc2)C(=O)C2CCCC1N2S(=O)(=O)c1cc(Cl)cc(Cl)c1 (stereo in doubt) [Compound J1, (1S,5R,6R)-3-(3-(benzyloxy)propyl)-10-((3,5-dichlorophenyl)sulfonyl)-5-vinyl-3,10-diazabicyclo[4.3.1]decan-2-one] | 100 to 500 nM | 100 to 500 nM
C=CC1CN(CCCOC)C(=O)C2CCCC1N2S(=O)(=O)c1cc(Cl)cc(Cl)c1 (stereo in doubt) [Compound J2, (1S,5R,6R)-10-((3,5-dichlorophenyl)sulfonyl)-3-(3-methoxypropyl)-5-vinyl-3,10-diazabicyclo[4.3.1]decan-2-one] | 500 to 1000 nM | 500 to 1000 nM
C=CC1CN(Cc2ccccn2)C(=O)C2CCCC1N2S(=O)(=O)c1cc(Cl)cc(Cl)c1 (stereo in doubt) [Compound J4, (1S,5R,6R)-10-((3,5-dichlorophenyl)sulfonyl)-3-(pyridin-2-ylmethyl)-5-vinyl-3,10-diazabicyclo[4.3.1]decan-2-one] | 100 to 500 nM | 100 to 500 nM
COCCCN1CC(CO)C2CCCC(C1=O)N2S(=O)(=O)c1cc(Cl)cc(Cl)c1 (stereo in doubt) [Compound J6, (1S,5R,6R)-10-((3,5-dichlorophenyl)sulfonyl)-5-(hydroxymethyl)-3-(3-methoxypropyl)-3,10-diazabicyclo[4.3.1]decan-2-one] | 100 to 500 nM | 500 to 1000 nM
C=CC1CN(CC(=O)O)C(=O)C2CCCC1N2S(=O)(=O)c1cc(Cl)cc(Cl)c1 (stereo in doubt) [Compound J10, 2-((1S,5R,6R)-10-((3,5-dichlorophenyl)sulfonyl)-2-oxo-5-vinyl-3,10-diazabicyclo[4.3.1]decan-3-yl)acetic acid] | 100 to 500 nM | 100 to 500 nM
C=CC1CN(CC(N)=O)C(=O)C2CCCC1N2S(=O)(=O)c1cc(Cl)cc(Cl)c1 (stereo in doubt) [Compound J11, 2-((1S,5R,6R)-10-((3,5-dichlorophenyl)sulfonyl)-2-oxo-5-vinyl-3,10-diazabicyclo[4.3.1]decan-3-yl)acetamide] | 100 to 500 nM | 100 to 500 nM
C#CCN1CC(C=C)C2CCCC(C1=O)N2S(=O)(=O)c1cc(Cl)cc(Cl)c1 (stereo in doubt) [Compound J12, (1S,5R,6R)-10-((3,5-dichlorophenyl)sulfonyl)-3-(prop-2-yn-1-yl)-5-vinyl-3,10-diazabicyclo[4.3.1]decan-2-one] | 100 to 500 nM | 100 to 500 nM
C=CC1CN(Cc2c[nH]nn2)C(=O)C2CCCC1N2S(=O)(=O)c1cc(Cl)cc(Cl)c1 (stereo in doubt) [Compound J13, (1S,5R,6R)-3-((1H-1,2,3-triazol-4-yl)methyl)-10-((3,5-dichlorophenyl)sulfonyl)-5-vinyl-3,10-diazabicyclo[4.3.1]decan-2-one] | ≤ 100 nM | ≤ 100 nM
C=CC1CN(Cc2cnccn2)C(=O)C2CCCC1N2S(=O)(=O)c1cc(Cl)cc(Cl)c1 (stereo in doubt) [Compound J14, (1S,5R,6R)-10-((3,5-dichlorophenyl)sulfonyl)-3-(pyrazin-2-ylmethyl)-5-vinyl-3,10-diazabicyclo[4.3.1]decan-2-one] | 100 to 500 nM | 100 to 500 nM
C=CC1CN(CC#N)C(=O)C2CCCC1N2S(=O)(=O)c1cc(Cl)cc(Cl)c1 (stereo in doubt) [Compound J16, 2-((1S,5R,6R)-10-((3,5-dichlorophenyl)sulfonyl)-2-oxo-5-vinyl-3,10-diazabicyclo[4.3.1]decan-3-yl)acetonitrile] | 100 to 500 nM | 100 to 500 nM
C=CC1CN(CCNC)C(=O)C2CCCC1N2S(=O)(=O)c1cc(Cl)cc(Cl)c1 (stereo in doubt) [Compound J19, (1S,5R,6R)-10-((3,5-dichlorophenyl)sulfonyl)-3-(2-(methylamino)ethyl)-5-vinyl-3,10-diazabicyclo[4.3.1]decan-2-one] | 100 to 500 nM | 100 to 500 nM
